Results: publication PMC5365251, “Biophysical assay for tethered signaling reactions reveals tether-controlled activity for the phosphatase SHP-1” (Science Advances, 2017)

Assays:
[1] = tested on: PEG28-ITIM; experiment: SPR of SHP-1 injected over immobilised PEG28-ITIM: tethered/solution catalysis and reach (MPDPDE fit); format: biochemical, mouse; conditions: for L (reach parameter), SH2 variants / allosteric activation (in words), SH2 variants: SHP-1 variants over PEG28-ITIM; for L (reach parameter), SH2 variants: average fit Fig. 6B: WT n = 15, N-SH2 mutant n = 3, C-SH2 mutant n = 9
Description: (§1) A construct expressing murine SHP-1 with an N-terminal 6× His tag was provided by M. H. Brown. Mutation of the SH2 domains was performed using a quick-change strategy. The mutations introduced were R30K and R33E for the N-terminal SH2 domain mutant and R136K for the C-terminal SH2 domain mutant previously shown to result in loss of binding ([6]). All peptides were ordered from PeptideSynthetics and were certified to be >95% pure. Peptides sequences were derived from the membrane-proximal ITIM sequence of mouse LAIR-1 receptor.
(§2) Experiments were performed on a Biacore 3000 instrument (GE Healthcare Life Sciences). All experiments were performed at 10°C and with a buffer flow rate of 10 μl/min. The buffer used was Hepes-buffered saline (HBS-EP; GE Healthcare Life Sciences), which contained 10 mM Hepes (pH 7.4), 150 mM NaCl, 3 mM EDTA, and 0.005% Surfactant P20.
(§3) A CM5 sensorchip was coupled with streptavidin to near saturation (typically between 4000 and 7000 RU) using the amine coupling kit (GE Healthcare Life Sciences) as described previously ([42]). After streptavidin was coupled, biotinylated peptides were injected to give the indicated concentrations in experimental flow cells, and excess biotin-binding sites were blocked with biotin in HBS-EP. The molar ratio of peptide to streptavidin was kept below 1:1 to ensure that peptide immobilization was random and not clustered on the tetravalent streptavidin molecules. Reference flow cells were treated with buffer and then blocked with biotin; pilot experiments using unphosphorylated control peptides in reference flow cells were indistinguishable from buffer-treated reference flow cells when injected with SHP-1. The chip surface was then conditioned with 5 × 5-min injections of HBS-EP. SHP-1 protein in HBS-EP with 1 mM dithiothreitol was then injected over reference and experimental flow cells in series for 5 min at the indicated concentrations. All SPR data were converted from the reference-subtracted data (in resonance units) to fraction bound by dividing the resonance units by the theoretical maximum resonance units expected if the experimental flow cell was saturated with bound SHP-1.
To determine the concentration of peptide in the assays, we first needed a conversion factor between the resonance units and the mass of peptide at the chip surface. We determined this conversion factor by injecting four concentrations of SHP-1 over a control flow cell on a CM5 chip and plotting the mass of SHP-1 injected against the raw resonance unit change. We repeated this on seven flow cells across four sensor chips to get an average slope of 149 ± 15 RU per g/liter (±SEM). This constant, together with the molecular weight of the peptide, was used to convert between the resonance units of peptides immobilized and the molar concentration at the chip surface. For example, 48.5 RU of PEG28-ITIM (molecular weight, 3221) was immobilized to obtain [peptide] = 97.1 μM (Fig. 2A).
From the MPDPDE model–simulated SPR traces, one would predict that the kcat*(solution) (fig. S4, G and H) and L (fig. S4F) are likely to be very sensitive to small systematic errors in the SPR trace at longer time scales. Nonspecific binding and baseline drift are two well-known sources of such systemic errors that can produce artifacts at long time scales (see fig. S6A for examples). To exclude data affected by these artifacts, we propose a simple quality control check that greatly improves the accuracy of estimating L, kcat*(tethered) , and kcat*(solution) . As a measure of the signal-to-noise ratio at long time points, we took the resonance units 20 s after the injection was completed (noise) and divided it by the resonance units 20 s before the injection finished (signal). […] Data that had evidence of significant artifact were excluded from the study based on this criterion (red data points in fig. S6B). […]

[2] = tested on: PEG28-ITIM; experiment: SPR of SHP-1 injected over immobilised PEG28-ITIM: binding constants (MPDPDE fit); parameters: species or system mouse; conditions: SHP-1 variants over PEG28-ITIM, compared with wild-type
Description: as §1, §2, §3
To determine the concentration of peptide in the assays, we first needed a conversion factor between the resonance units and the mass of peptide at the chip surface. We determined this conversion factor by injecting four concentrations of SHP-1 over a control flow cell on a CM5 chip and plotting the mass of SHP-1 injected against the raw resonance unit change. We repeated this on seven flow cells across four sensor chips to get an average slope of 149 ± 15 RU per g/liter (±SEM). […]

[3] = target: T1, SHP-1 (Mus musculus, UniProt P29351); experiment: SPR of SHP-1 injected over ITIM peptides with different PEG linker lengths: reach and tethered catalysis (MPDPDE fit); format: biochemical, murine; conditions: for L (reach parameter) versus tether length: SHP-1 over peptides, average fit, PEG28 n = 15, PEG0 n = 2, 10°C, HBS-EP pH 7.4; for kcat*(tethered) versus tether length: SHP-1 over peptides with shorter PEG linkers, compared with PEG28-ITIM, Fig. 5B
T1 construct: 6xHis (N); made in house; host or cells: Escherichia coli BL21-CodonPlus (DE3)-RIPL
Description: as §1, §2, §3
The five fitting parameters (p1, p2, p3, p4, and p5) are related to the five biophysical/biochemical constants as follows: p1 = kon [SHP-1], p2 = koff, p3=kcat*(tethered)× [peptide], p4=kcat*(tethered)/L^3 , and p5=kcat*(solution)× [SHP-1].
The MPDPDE model was fit to the experimental data using lsqcurvefit in Matlab (Mathworks). Specifically, the value of nB from the MPDPDE model was fit to the experimental SPR data that were normalized to maximum binding. Each fit was repeated multiple times with different initial guesses for the five fitting parameters to make certain that the best fit was achieved (global convergence). […]

[4] = target: T1, SHP-1; experiment: SPR of SHP-1 injected over ITIM peptides: SHP-1 binding to the peptides; parameters: species or system murine; conditions: SHP-1 over peptides with shorter PEG linkers, compared with PEG28-ITIM; Fig. 5B
Description: as §1, §2
A CM5 sensorchip was coupled with streptavidin to near saturation (typically between 4000 and 7000 RU) using the amine coupling kit (GE Healthcare Life Sciences) as described previously ([42]). After streptavidin was coupled, biotinylated peptides were injected to give the indicated concentrations in experimental flow cells, and excess biotin-binding sites were blocked with biotin in HBS-EP. […]

T1 sequence (P29351 whole entry): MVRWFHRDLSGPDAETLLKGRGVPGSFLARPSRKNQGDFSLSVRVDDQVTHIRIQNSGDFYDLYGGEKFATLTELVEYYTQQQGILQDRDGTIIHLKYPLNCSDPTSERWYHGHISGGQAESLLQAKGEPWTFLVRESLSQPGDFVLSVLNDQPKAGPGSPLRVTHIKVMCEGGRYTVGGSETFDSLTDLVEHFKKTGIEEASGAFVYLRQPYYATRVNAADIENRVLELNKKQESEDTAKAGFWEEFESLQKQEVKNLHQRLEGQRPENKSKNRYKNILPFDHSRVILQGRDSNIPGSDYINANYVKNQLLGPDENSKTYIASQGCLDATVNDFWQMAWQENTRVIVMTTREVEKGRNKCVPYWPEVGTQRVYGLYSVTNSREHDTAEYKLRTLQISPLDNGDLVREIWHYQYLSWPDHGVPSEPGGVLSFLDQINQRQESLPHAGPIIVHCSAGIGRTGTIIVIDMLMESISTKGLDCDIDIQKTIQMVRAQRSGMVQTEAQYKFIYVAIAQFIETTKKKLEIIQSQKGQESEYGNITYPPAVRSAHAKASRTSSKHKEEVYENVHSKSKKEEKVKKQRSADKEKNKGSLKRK

Substance | L (reach parameter), SH2 variants [1] [nm] | allosteric activation (in words), SH2 variants ([1]; Fig. 6B) | L (reach parameter) versus tether length [3] [nm] | kcat*(tethered) versus tether length [3] | kon versus tether length [4] | also measured
C-terminal mutant: SHP-1 with R136K mutation in the C-terminal SH2 domain | 23.9 | allosteric activation is observed in both cases | – | – | – | binding to ITIM peptide (in words), SH2 variants [2]: weak effect on binding
Biotin-(PEG)28-DLQEVTY*IQLDHH [PEG28-ITIM] | – | – | 23 | – | – | –
Biotin-(PEG)3-DLQEVTY*IQLDHH [PEG3-ITIM] | – | – | – | decrease | decrease | –
Biotin-GDLQEVTY*IQLDHH [PEG0-ITIM] | – | – | 17 | decrease | decrease | –
N-terminal mutant: SHP-1 with R30K and R33E mutations in the N-terminal SH2 domain | 16.5 | still exhibited allosteric activation | – | – | – | kcat*(tethered) over kcat*(solution), SH2 mutant ([1]; N-SH2 mutant SHP-1 over PEG28-ITIM, n = 3): 10 fold; allosteric activation (in words), SH2 variants ([1]; Fig. 6B, listed as N-terminal SH2 (N-SH2) mutant SHP-1): allosteric activation is observed in both cases; reach (in words), SH2 variants ([1]; binding via C-terminal compared to N-terminal SH2 domain, PEG28-ITIM, Fig. 6B): reduced reach; binding to ITIM peptide (in words), SH2 variants ([2]; listed as Mutation of the N-terminal SH2 domain): drastically reduced binding; binding to ITIM peptide (in words), SH2 variants ([2]; listed as N-terminal SH2 (N-SH2) mutant SHP-1): weak binding
